ChEMBL document CHEMBL5728342, “Heterocyclic compounds for the inhibition of pask” (2021)
pIC50: −log10 of the molar value.

Target: PAS domain-containing serine/threonine-protein kinase (Homo sapiens, UniProt Q96RG2)
Experiment: FRET Assay : Table 3: In the presence of kinase and ATP, the Ulight-peptide is phosphorylated and captured by an anti-phospho-substrate antibody, which brings the Eu chelate donor and Ulight acceptor dyes into close proximity. Upon excitation at 340 nm, the Eu chelate transfers its energy to the Ulight dye, resulting in a fluorescent light emission at 665 nm. Titration of kinase at 1 mM ATP was achieved via the following protocol. After making serial three-fold dilutions of PASK (Invitrogen) in reaction buffer across the plate; 5 μl of kinase dilution and 5 μl substrate/ATP mix were added to the wells of the white Optiplate-384 (PerkinElmer). The contents of the plate were and incubated at RT for 1 h. The reaction was stopped by adding 5 μl of stop solution to each test well followed by mixing and incubation at RT for 10 minutes. 5 μl of detection mix (detection antibody diluted in detection buffer) was added; the contents of the plate were mixed and then incubated in the dark for 1 hour at RT. The signal was recorded at TR-FRET mode (665 nm/615 nm). The results were graphed to calculate the EC50.

PAS domain-containing serine/threonine-protein kinase, sequence (Q96RG2 whole entry, the tested form may be a part): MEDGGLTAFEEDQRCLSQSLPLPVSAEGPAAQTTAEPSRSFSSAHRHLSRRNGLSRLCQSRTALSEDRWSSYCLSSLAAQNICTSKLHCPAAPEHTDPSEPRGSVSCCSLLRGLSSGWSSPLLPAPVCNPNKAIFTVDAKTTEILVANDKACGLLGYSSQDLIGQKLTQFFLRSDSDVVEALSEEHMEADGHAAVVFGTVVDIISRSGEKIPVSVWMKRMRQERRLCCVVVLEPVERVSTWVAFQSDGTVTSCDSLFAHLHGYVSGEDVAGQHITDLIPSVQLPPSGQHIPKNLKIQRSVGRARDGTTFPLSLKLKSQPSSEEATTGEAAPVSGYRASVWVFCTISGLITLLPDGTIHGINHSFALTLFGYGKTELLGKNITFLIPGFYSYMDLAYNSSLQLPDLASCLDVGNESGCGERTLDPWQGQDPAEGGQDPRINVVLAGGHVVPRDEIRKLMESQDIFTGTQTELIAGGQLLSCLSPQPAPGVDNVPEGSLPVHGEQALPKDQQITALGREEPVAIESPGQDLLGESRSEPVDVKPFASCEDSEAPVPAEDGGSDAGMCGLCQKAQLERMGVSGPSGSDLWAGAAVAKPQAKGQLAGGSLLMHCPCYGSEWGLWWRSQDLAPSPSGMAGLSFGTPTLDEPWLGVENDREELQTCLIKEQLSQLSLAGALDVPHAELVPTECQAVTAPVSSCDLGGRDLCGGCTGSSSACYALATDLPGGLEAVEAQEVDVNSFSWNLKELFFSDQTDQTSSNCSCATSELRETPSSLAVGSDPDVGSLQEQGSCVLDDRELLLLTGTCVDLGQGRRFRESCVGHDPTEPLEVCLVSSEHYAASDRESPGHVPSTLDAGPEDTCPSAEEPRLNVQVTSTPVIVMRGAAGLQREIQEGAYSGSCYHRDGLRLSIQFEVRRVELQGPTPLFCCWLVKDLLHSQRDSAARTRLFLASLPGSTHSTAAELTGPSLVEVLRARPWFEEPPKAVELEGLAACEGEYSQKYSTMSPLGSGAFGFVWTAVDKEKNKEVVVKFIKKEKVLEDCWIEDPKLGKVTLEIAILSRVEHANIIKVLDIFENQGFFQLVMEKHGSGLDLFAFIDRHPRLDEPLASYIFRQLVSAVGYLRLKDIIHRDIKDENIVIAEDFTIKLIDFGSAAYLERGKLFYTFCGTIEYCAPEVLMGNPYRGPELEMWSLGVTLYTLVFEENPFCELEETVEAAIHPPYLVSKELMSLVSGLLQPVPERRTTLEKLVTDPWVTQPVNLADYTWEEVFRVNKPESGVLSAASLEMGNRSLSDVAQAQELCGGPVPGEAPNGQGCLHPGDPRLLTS

## Nc1nn2c(c1-c1ccccn1)CC(c1ccc3c(c1)OC(F)(F)O3)=CC2=O
  pIC50: > 5.00
